Measurements as given in a melting point compilation (Tetko et al.; mined from patent text by program, amines drawn as free bases though some values may be those of a salt).

Structure (SMILES) | melting point [°C]
CCOC(=O)CCc1cc2cc(O)ccc2s1 | 111 to 113
COC(=O)C1CC(=O)C(N=Nc2ccccc2)=C(O)C1 (stereo not drawn) | 117 to 118
CNc1nnc(SCc2ccccc2)s1 | 87 to 89
O=C(O)COCCc1cc2cc(Cl)ccc2n1S(=O)(=O)c1ccccc1 | 135 to 137
CCOC(=O)CNC(=O)C(=O)NCC(OC)OC | 63 to 65
CCCCN(C(=O)CCC(=O)O)C1CC(C)(C)N(OC2CCCCC2)C(C)(C)C1 | 110 to 113
O=C1CN2CCCCC2=NN1c1ccc(Cl)cc1Cl | 115 to 117
CC(=O)NNc1ccc([N+](=O)[O-])cn1 | 226 to 227
Nc1cccc2cccc(S)c12 | 69 to 72
Cc1ccc(C2C(=O)NC(=O)NC2=O)cc1 | 271
C[Si](C)(C)c1cc(CCC(=O)O)co1 | 25
O=C(O)c1cc2c(c([N+](=O)[O-])c1)OC(C(Cl)(Cl)Cl)OC2C(Cl)(Cl)Cl (stereo not drawn) | 211 to 212
OC1CCNc2ncc(Br)cc21 (stereo not drawn) | 125 to 128
CC(C)OC(=O)C1=C(O)c2ccccc2S(=O)(=O)N1C | 102 to 103
CCCCCCCCCCCCCCSc1ccc(C(=O)O)s1 | 106 to 108
COc1c(O)c(C)c2c(c1OC)Nc1ccccc1S2 | 218 to 220
O=C(OCC1OC(n2cc(F)c(=O)[nH]c2=O)C(O)C1O)C1CCCN1C(=O)OCc1ccccc1 (stereo not drawn) | 137 to 144
CC1(COc2ccc(CP(=O)(O)O)cc2)CCCCC1 | 170 to 172
O=C(O)c1ccc2oc3ccccc3c2c1 | 172 to 173
CS(=O)(=O)Nc1cc2occ(C(N)=O)c(=O)c2cc1Oc1ccccc1F | 249 to 251
COc1ccc2c(Cc3c(Cl)cncc3Cl)nnc(-n3cncn3)c2c1 | 207 to 208
COc1ccc([N+](=O)[O-])cc1CNC(C)=O | 158 to 160
O=C(O)c1cn2c(n1)COc1ccc([N+](=O)[O-])cc1-2 | 310 to 312
CCOC(=O)Cc1c(C)nn(-c2ccccc2)c1C | 86 to 87
CC[C@H](C)C(OCc1ccccc1)[C@H]1[C@H]([N+](=O)[O-])[C@@H](c2cccs2)N[C@@H]1C(=O)NCCC(=O)O (stereo partly drawn) | 79 to 80
CCOC(=O)C(=O)CC(=O)c1cn(CCCCc2ccccc2)c2ccccc2c1=O | 88 to 90

Structure (SMILES) | melting point [°C]
Nn1c(-c2ccccc2Cl)nnc1-c1ccccc1Cl | 168 to 170
NC(=O)C(CCO)N1CCCC1=O (stereo not drawn) | 164 to 165
Cc1cc2c(cc1N1CCCCCC1)OC(=O)C2C (stereo not drawn) | 58 to 60
CC1=CC(=O)C(O)=CC1=CC=Cc1ccccc1 | 164 to 165
COC(=O)C1=Cc2cc(Br)ccc2SCC1 | 94 to 95
CCCCc1nc(O)cc(CC(=O)OC)n1 | 83 to 85
COC(=O)c1cccc(C=NO)c1 | 107 to 108
CCOC(=O)c1c(C)nc(NN=C(C)C)c2nnn(CC)c12 | 68 to 72
CC(CCc1ccccc1)Nc1nc(Cl)nc(NS(C)(=O)=O)n1 (stereo not drawn) | 143
C=CC(CC(O)C(CC1CCCCC1)NC(=O)C(Cc1c[nH]cn1)NC(=O)C(Cc1ccccc1)Cc1ccccc1)C(C)C (stereo not drawn) | 98
CCCOc1ccc(F)cc1C(=O)C=CN(C)C | 43 to 46
CCCC(C)(C)c1nc(CC(=O)O)c(C)o1 | 97 to 98
CCCCP(CCCC)(CCCC)=C1CC(=O)OC1=O | 70
CC(=O)NC(C)CCC1CCC(n2cc3ccc(OCC4CC4)cc3n2)CC1 (stereo not drawn) | 139 to 140
CCCCCOC(=O)Cc1nc(-c2ccccc2)oc1-c1ccsc1 | 61 to 62
CCCC12CSC(SC1)SC2 | 139
C#CCn1c2c(c(=O)n(-c3ccc(Cl)c(C(=O)OCC)c3)c1=O)CCC2 | 121 to 123
Cn1c(C(F)(F)F)cc(=O)n(-c2cc(OC(=O)C3CCCCC3)c(Cl)cc2F)c1=O | 97 to 101
COc1ccc2cccc3c2c1CCC3CNC(=O)C1CC1 (stereo not drawn) | 119
Cc1ncc(C(=O)N(C)Cc2cc(C(F)(F)F)cc(C(F)(F)F)c2)c(-c2ccccc2Br)n1 | 122
CC(C)(C#N)c1cc(-n2cncc2C=O)cc(C(C)(C)C#N)c1 | 108 to 111
CC(=O)O[C@@H]1OCC[C@@H]1NC(=O)[C@H](CC(C)C)NS(=O)(=O)c1ccc(N)cc1 | 189 to 190
CC(C)CNC(=O)[C@H](C)C[C@H](O)[C@H](CC1CCCCC1)NC(=O)OC(C)(C)C | 125 to 126
CCOC(=O)c1cnc2nn(CC)cc2c1OCC | 111 to 113
CC(=O)Nc1ccc(OC2SCC(O)C(O)C2O)cn1 (stereo not drawn) | 209
Cc1ccc(C2CC3C=CC2C3)n1CCC1CC(O)CC(=O)O1 (stereo not drawn) | 125 to 126

Now from value to compound:

melting point [°C] | Structure (SMILES)
200 to 203 | CCOC(=O)NC(C(=O)NN(Cc1ccc(-c2cncs2)cc1)CC(O)C(Cc1ccccc1)NC(=O)C(NC(=O)OC)C(C)CC)C(C)C (stereo not drawn)
133 to 134 | CCOc1nn(Cc2ccc(OCc3ccc4ccccc4n3)nc2)cc1CCC(=O)O
162 to 164 | O=C1C=C(c2ccccc2)S(=O)(=O)C(c2cccs2)=C1
97 to 98 | Brc1ccc(N(Cc2ccccc2)c2ccccc2)cc1
109 to 111 | O=C(NCCc1cccc2ccc(OC(c3ccccc3)c3ccccc3)cc12)C1CC1
127 to 128 | CS(=O)(=O)c1ccc(-c2oc(C3CCCCC3)nc2-c2ccc(F)cc2)cc1
123 | COc1cc(Nc2nccc(-c3ccc(NCCO)nc3)n2)cc(OC)c1OC
244 to 245 | CN1CCC(c2c[nH]c3ccc(NC(=O)c4ccc(F)s4)nc23)CC1
177 to 179 | CC(C)(C)C(=O)Nc1ccc(Cl)cc1C1(O)CCN(C/C=C/c2ccc(Cl)cc2)CC1
136 to 138 | COc1ccc(Oc2ccc(C(C)=C3SCCCS3=O)cc2)cc1 (stereo not drawn)
179 to 180 | COc1ccc(C(=O)Nc2ccccc2)cc1NC(=S)Nc1ccc(Cl)cc1
170 to 171 | O=C(c1cc2ccnc(Cl)c2[nH]1)N1CCOCC1
143 to 144 | COC(=O)COc1ccc([C@H]2c3ccc(OCc4ccccc4)cc3OC[C@H]2c2ccccc2)cc1 (racemic)
219 to 223 | O=C(c1c(Cl)cccc1Cl)N(C(=O)c1c(Cl)cccc1Cl)c1cc(-c2ccc(Cl)cc2)on1
216 to 218 | Nc1ccc(C(=O)N2CCCC(=O)c3sccc32)cc1
85 to 86 | O=c1cc(C2CCCCC2)oc2ccc(OCCCCCN3CCC(O)CC3)cc12
185 | CCn1cc(-c2cccc(C(F)(F)F)c2)c(=O)c(-c2cccc(C(F)(F)F)c2)c1
160 to 162 | O=C(CCC(=O)N1CCC(c2ccc(Cl)cc2)CC1)c1ccc2c(c1)CCN(C1CCCC1)CC2
163 to 165 | O=C(c1ccccc1)c1cnn2c(-c3ccccc3)ccnc12
176 to 178 | O=C(Nc1ccc(C(=O)N2C[C@@H]3C[C@@H](O)CN3C(=O)c3ccccc32)cc1)c1ccccc1-c1ccccc1
254 to 256 | Oc1ccc2nc(-c3ccc(O)c(Cl)c3)oc2c1
144 to 147 | Cc1cc(C)cc(CCCn2c(=O)c3c(Cl)cc(Cl)cc3n(Cc3ccccc3)c2=O)c1
217 | CC(C)(C)c1cccc(S(=O)(=O)n2c(C(=O)c3ccc(C(=O)O)s3)cc3cc(C(F)(F)F)ccc32)c1

melting point [°C] | Structure (SMILES)
268 to 269 | CCN1c2ncccc2C(=O)N(C)c2ccc(-c3c[nH]c(C#N)c3)nc21
240 to 241 | Cc1ccc2oc(C(=O)N[C@H]3CCN(C(=O)c4cc(C(F)(F)F)cc(C(F)(F)F)c4)[C@H](Cc4ccc(Cl)cc4)C3)cc(=O)c2c1
167 | CCCc1noc(-c2ccccc2)c1-c1ccc(S(N)(=O)=O)cc1
207 to 209 | CCc1nc2c(cnn2CC)c(NC2CCOCC2)c1CNC(=O)c1cccc(C(=O)O)c1
128 to 129 | CC1(C)Cc2nc(C3CCCC3)c(C(=O)c3ccc(C(F)(F)F)cc3)c(-c3ccc(F)c(F)c3)c2C(O[Si](C)(C)C(C)(C)C)C1 (stereo not drawn)
249 to 250 | O=C(NCc1ccc(O)cc1)c1[nH]c2ccc(Cl)cc2c1S(=O)(=O)c1ccccc1
206 to 208 | COc1ccc(-c2nc(C(=O)NCCO)c[nH]2)cc1OC1CCCC1
167 to 169 | O=C1NCC=NN1c1cc(Cl)c(Cc2ccc(C(O)c3ccc(Cl)nc3)cc2)c(Br)c1 (stereo not drawn)
177 to 178 | O=C(O)c1cc(S(=O)(=O)N2CCCC(OCc3ccccc3)C2)ccc1Br (stereo not drawn)
143 to 150 | CN1CCN(Cc2ccc(-c3cc4ncnc(Nc5ccc6[nH]ccc6c5)c4s3)cc2)CC1
158 to 160 | Cn1nc(NC(=O)Cc2ccccc2)c(-c2ccncc2)c1-c1ccc(F)cc1
92 to 93 | O=C(Nc1ccccc1)c1cccc(Oc2cccc(C(F)(F)F)c2)n1
160 to 162 | Cc1ccc(-c2ccc(C(=O)N3Cc4cccn4Cc4ccccc43)cc2)c2ccccc12
216 to 219 | O=C1C(O)=C(C2CCC(c3ccc(Cl)cc3)CC2)C(=O)c2ccccc21 (stereo not drawn)
69 to 72 | O=C1CCCCC1(CCCCCOc1ccccc1)c1ccccc1 (stereo not drawn)
102 to 104 | O=C(NCC#CCN1CCN(c2ncccn2)CC1)c1nsc2ccccc12
164 to 165 | Cc1c(C(=O)Nc2ccc(N3CCN(CCO)CC3)c(C#N)c2)cnn1-c1ccc(F)c(F)c1
131 to 133 | CCCCN(Cc1ccc(-c2ccccc2-c2nnnn2C(c2ccccc2)(c2ccccc2)c2ccccc2)cc1)c1nc(C)cc(C)n1
78 to 80 | Cc1ccc(C2CCN(C(=O)CCC(=O)c3ccc4c(c3)CN(C(C)C)CC4)CC2)cc1
169 to 170 | Cc1c(CNCC(C)(C)C)n(C)c2ccc(NC(=O)c3ccc(OCC4CC4)cc3)cc12
210 to 212 | CC(C)n1nc(-c2c(NCc3ccccn3)nc(N)nc2-c2ccc(F)cc2)ccc1=O
188 to 190 | CCc1cc2cc(O)ccc2c(Oc2ccc(/C=C/C(=O)O)cc2)c1-c1ccccc1
200 to 207 | Clc1ccc2nc(-c3ccccc3)c(-c3ccnnc3)n2n1
